Measured values taken from patent US4292428A, “Cephalosporin derivatives” (Hoffmann-La Roche Inc., priority 1978, dated 1981).
Read-outs that look alike come from different tables or passages of the source.

What was measured:
[1] = Toxicity (mice, 24 hour value); details: mouse, in vivo, po
Description: |Toxicity: (mice, 24 hour value)

[2] = tested on: Escherichia coli; assay: Activity in vivo: mice infected intraperitoneally with Escherichia coli, survival on the 4th day; details: 96 h, survivors on 4th day, by interpolation, read-out: CD50 (dosage at which 50% of the mice survive)
Description: Groups of 5 mice are infected intraperitoneally with an aqueous suspension of Escherichia coli. The derivative to be tested is administered orally or subcutaneously 1, 2.5 and 4 hours after the infection. The number of surviving mice is determined on the 4th day. Various dosages of the derivative are administered and the dosage at which 50% of the mice survive (CD50, mg/kg) is determined by interpolation.

[3] = oral, 1, 2.5 and 4 hours after intraperitoneal infection
[4] = sc, subcutaneous, 1, 2.5 and 4 hours after intraperitoneal infection

| Structure (SMILES) | LD50 at 24 h [1] | ED50 [2, 3] | ED50 [2, 4] |
| --- | --- | --- | --- |
| CON=C(C(=O)NC1C(=O)N2C(C(=O)OCOC(=O)C(C)(C)C)=C(CSc3nc(=O)c(OCOC(=O)C(C)(C)C)nn3C)CSC12)c1ccco1 [Derivative B, Methylene-(6R,7R)-3-{[[2,5-dihydro-2-methyl-5-oxo-6-[(pivaloyloxy)methoxy]-as-triazin-3-yl]thio]methyl}-7-[2-(2-furyl)-2-(methoxyimino)acetamido]-8-oxo-5-thia-1-azabicyclo[4.2.0]oct-2-ene-2-carboxylate pivalate (Z-isomer)] | 1250 to 2500 mg/kg | 0.03 mg/kg | 0.02 mg/kg |
| CON=C(C(=O)NC1C(=O)N2C(C(=O)OCOC(=O)C(C)(C)C)=C(CSc3n[nH]c(=O)c(=O)n3C)CSC12)c1ccco1 [Derivative A, Methylene-(6R,7R)-7-[2-(2-furyl)-2-(methoxyimino)-acetamido]-8-oxo-3-[[(1,4,5,6-tetrahydro-4-methyl-5,6-dioxo-as-triazin-3-yl)thio]methyl]-5-thia-1-azabicyclo-[4.2.0]oct-2-ene-2-carboxylate pivalate (Z-isomer)] | 2500 to 5000 mg/kg | 0.05 mg/kg | 0.02 mg/kg |
